Measured values taken from patent publication US12151018B2 (priority 2019, dated 2024).

Tested on: Caenorhabditis elegans
Conditions: in vivo

Substance: argireline
- amount needed alone for the same level of effect as argireline 100 ppm plus Z. piperitum extract 500 ppm: 100,000 ppm
